Data: PMC5344539, “Nematode neuropeptides as transgenic nematicides” (PLoS Pathogens, 2017)
Entries after “also recorded” stand apart in the source; their conditions may differ.

Assays:
[1] = tested on: M. incognita J2s; experiment: Tomato invasion assay with uNLP pre-treated J2s; assay type: in vivo, Meloidogyne incognita; details: for % Invasion: mean
Description: (§1) Predicted uNLPs from both M. incognita and G. pallida were synthesised by EZBiolab and dissolved into pH adjusted ddH2O to make a 5 mM stock which was aliquoted and stored at -20°C. J2s of both M. incognita and G. pallida were incubated for 24 hours in 200 μl of each peptide in a 24 well plate (SPL Lifesciences, South Korea) at a defined concentration.
(§2) Tomato seeds were sterilised with 2.5% NaOCl for 15 minutes, washed 5 times in ddH20 and germinated on 0.5% Murashige and Skoog plates at 23°C. […] Invasion assays were performed by mixing 500 pre-treated M. incognita or G. pallida J2s with agar slurry and a single tomato seedling (2 days post germination) in a 6 well plate. Assays were left at 23°C for 24 hours in the case of M. incognita and at 18°C for 24 hours in the case of G. pallida under a 16 hour light and 8 hour darkness cycle. Seedlings were stained using acid fuschin [69] and the number of nematodes within the roots counted. At least five seedlings were used for M. incognita infections assays, with at least 15 seedlings used for G. pallida infections assays (due to increased variation).

[2] = tested on: M. incognita J2s; experiment: Plant protection assay, C. reinhardtii secreting uNLPs; assay type: in vivo, Meloidogyne incognita; details: Fig 4A; peptide secreted by transgenic C. reinhardtii culture in tomato invasion arena with 500 J2s; relative to untransformed C. reinhardtii = 100%; mean
Description: as §2
B. subtilis were grown overnight in LB media containing ampicillin (100 μg/ml) at 37°C with shaking, and harvested in the log phase of growth determined by measuring OD600nm. Five ml of culture at 0.5 OD was spun down and the pellet mixed with 3 ml of agar slurry and 500 J2s from either G. pallida or M. incognita. C. reinhardtii clones were grown at 23°C with shaking, cultures in the log phase were measured at OD750 and 5 ml of culture at 0.5 OD was pelleted by centrifugation. C. reinhardtii pellets were mixed with 3 ml of agar slurry and 500 J2s from either G. pallida or M. incognita. Plant invasion assays were performed as described above. […]

[3] = tested on: G. pallida J2s; experiment: Chemosensory (chemotaxis) assay of uNLP pre-treated J2s towards tomato root exudate; assay type: in vivo, Globodera pallida
Description: as §1
(§3) A 60 mm Petri dish was divided into two segments, a positive and a negative side, with a 0.5 cm 'dead zone' either side of the centre point. The petri dish was filled with 15 ml of 0.25% w/v agar which was allowed to solidify. 3 ml of 0.25% w/v agar slurry in spring water (pH 7, agitated with a magnetic stirrer for several hours to give a smooth consistency) was added to the petri dish and spread evenly over the surface. Root diffusate (attractant) and water only (control) 0.25% agar plugs were embedded in the agar slurry, either side of the assay arena. Root diffusate was collected from 10 tomato plants, aged 3–6 weeks in 1 litre pots, by pouring 500 ml of ddH20 through the soil three times. Diffusate from each plant was combined, filter sterilised and stored at 4°C for a maximum of 1 month. Root diffusate agar plugs were made by melting 1.25% agar in ddH20, cooling to 50°C before mixing with 4 parts of root diffusate. The agar was then allowed to solidify at room temperature. 100 uNLP pre-treated M. incognita or G. pallida J2s were added by pipette to the centre of the plate. J2s which moved out of the 'dead zone' after 3 hours were counted and their location (+/-) scored. The distribution of J2s were used to create a chemotaxis index for each plate, which formed one replicate, a total of 10 replicates where completed for each uNLP treatment.

[4] = tested on: S. carpocapsae infective juveniles (IJs); experiment: S. carpocapsae host-finding assay (non-target); assay type: in vivo, Steinernema carpocapsae; details: Fig 5E; chemotaxis towards insect host Galleria mellonella; 100 IJs incubated 24 h in 100 μM uNLP; n = 5; control 0.2315
Description: S. carpocapsae were cultured in Galleria mellonella at 23°C. Infective juveniles (IJs) were collected using a White trap in PBS. Freshly emerged IJs were used for each assay. 100 IJs were incubated for 24 hours in 100 μM of selected uNLPs, and host-finding assays (n = 5) performed as in Morris et al..

[5] = tested on: G. pallida J2s; experiment: Tomato invasion assay with uNLP pre-treated J2s; assay type: in vivo, Globodera pallida; details: 100 μM uNLP, 24 h; tomato cv. Moneymaker; relative to controls
Description: as §1, §2

[6] = tested on: M. incognita J2s; experiment: Serotonin-induced stylet thrusting assay; assay type: in vivo, Meloidogyne incognita; details: Fig 1C; J2s incubated in 100 μM uNLP for 24 h; stylet thrusts in 5 mM serotonin, counted 1 min; normalised to control = 100%; mean, at least 30 J2s
Description: as §1
Stylet thrusting assays where performed by incubating 100 M. incognita or G. pallida J2s for 15 minute in 5 mM or 2 mM serotonin (Sigma Aldrich, USA), respectively. J2s were placed on a glass slide and stylet thrusts were counted for randomly selected J2s, for 1 minute each. Counts for a given cohort of J2s were taken in a maximum interval of 15 minutes. Longer counting intervals, making for longer serotonin incubations, yielded inconsistent results. At least 30 J2s were counted for each neuropeptide treatment.

[7] = tested on: M. incognita J2s; experiment: Chemosensory (chemotaxis) assay of uNLP pre-treated J2s towards tomato root exudate; assay type: in vivo, Meloidogyne incognita
Description: as §1, §3

[8] = 100 μM uNLP, 24 h, relative to controls

Sequence: SFDSFTGPGFTGLD [Mi-NLP-15b, predicted unamidated NLP perfectly conserved between M. incognita and G. pallida; synthesised, also secreted from transgenic microbes]
- effect on host invasion (in words) ([1]; 100 μM uNLP, 24 h, tomato cv. Moneymaker, relative to controls): inhibited
- % Invasion ([1]; Fig 1B, 500 J2s incubated in 100 μM uNLP for 24 h, single tomato seedling, 24 h at 23°C, normalised to negative control = 100%): 32.22%
- % Invasion ([1]; Fig 3B, 100 nM peptide, 24 h, control = 100%): 69.90%
- % Invasion ([1]; Fig 3B, 1 µM peptide, 24 h, control = 100%): 59.05%
- % Invasion ([1]; Fig 3B, 10 µM peptide, 24 h, control = 100%): 54.62%
- % Invasion ([1]; Fig 3B, 100 µM peptide, 24 h, control = 100%): 35.06%
- % Invasion [2]: 10.82%
- effect on chemosensation (in words) [3, 8]: inhibits G. pallida chemotaxis
- CI score ([3]; Fig 2A, J2s incubated in 100 μM uNLP for 24 h, tomato cv. Moneymaker root exudate vs water agar plugs, counted after 3 h, mean of 10 replicates of 100 J2s, control 0.4154): -0.04762
- CI score [4]: 0.2225
- effect on host invasion (in words) [5]: does not inhibit host invasion
- % Thrusting [6]: 129.90%
- effect on chemosensation (in words) [7, 8]: inhibit chemosensation; also recorded: inhibited
- CI score ([7]; Fig 1A, J2s incubated in 100 μM uNLP for 24 h, tomato cv. Moneymaker root exudate vs water agar plugs, counted after 3 h, mean of 10 replicates of 100 J2s, control 0.4426): -0.3408
- CI score ([7]; Fig 3A, 100 pM peptide, 24 h, control 0.4133, mean): 0.03117
- CI score ([7]; Fig 3A, 1 nM peptide, 24 h, control 0.4133, mean): -0.07105
- CI score ([7]; Fig 3A, 10 nM peptide, 24 h, control 0.4133, mean): -0.1741
- CI score ([7]; Fig 3A, 100 nM peptide, 24 h, control 0.4133, mean): -0.1195
- CI score ([7]; Fig 3A, 1 µM peptide, 24 h, control 0.4133, mean): -0.1344
- CI score ([7]; Fig 3A, 10 µM peptide, 24 h, control 0.4133, mean): -0.03579
- CI score ([7]; Fig 3A, 100 µM peptide, 24 h, control 0.4133, mean): -0.3782
- CI score ([7]; Fig 3A, concentration printed as 22:00:00, 24 h, control 0.4133, mean): -0.1553
- lowest concentration inhibiting chemosensation ([7]; serial dilution, 24 h exposure (Fig 3)): ≤ 10 pM
